Results on one compound are retold here after patent US12678388B2, “Dermatological compositions and use thereof” (BONE SCI. BIO LTD., priority 2021, dated 2026).

Holding throughout (format): in vivo
The subject of data set [1] is albino rabbits. Briefly: Implantation test (local implantation effects, femur). The note with it: 3% w/v PFD5 formulation. How it is done:
In order to test the local implantation effects of a 3% w/v PFD5 formulation according to certain embodiments of the present invention, an implantation test was performed.
10 albino rabbits were used for the test: each animal was implanted with the test sample at the right femur and with negative control (USP reference standard control plastic, HDPE) at the left femur, for a total of two sites/animal.
One explant time was scheduled after 4 weeks. Animals were daily submitted to general objective exam with the purpose to detect possible local effects due to the sample. The behavior of animals was observed and all abnormalities were recorded. During the explant, all implanted sites with the test sample and with the negative control were harvested and observed macroscopically to determine any injuries. Implantation sites of each animal and local lymph nodes were preserved in formalin 10% buffer solution and used for histological evaluation. […] Nothing abnormal was detected macroscopically in both treated and control sites of all animals.

For another data set, the system named is rats. Briefly: Tissue augmentation in subcutaneous rat model. Conditions: PFD5 3.5% w/v. How it is done: The effect of PFD5 3.5% w/v hydrogel on tissue augmentation was tested in a subcutaneous rat model and compared to the effect obtained in rats treated with a commercially available hyaluronic acid dermal filler. Individual rats were treated with 0.2 ml of PFD5 hydrogel or HA injection administered subcutaneously above the parietal bone. Animals were held for three days, one month and four months after which implants were excised and underwent histological examination and analysis for the area occupied by the implant. […] Due to the lower swellability of the PFD5 hydrogel as compared to the HA hydrogel, the area remained more invariable.

The test system of data set [2] is albino rabbits. The data set is described as follows: Intracutaneous reactivity test. Conditions: for primary irritation index (Treated-Control): 0.2 ml intracutaneous; for erythema and oedema at treated sites: 24, 48 and 72 hours, same in vehicle control sites. How it is done: In order to test the potential irritation effects of the formulation according to certain embodiments of the present invention, an intracutaneous reactivity test was performed. Two extracts of a 3% w/v PFD5 hydrogel sample, one in a non-polar vehicle, cottonseed oil, and one in a polar vehicle, sodium chloride injection (0.9%), were prepared by immersing the sample in the relative solvents in order to reach a weight/volume ratio of 0.2 g/ml and incubating at 37±1° C. for 72±2 h in dynamic conditions (orbital stirrer). 0.2 ml of the two extracts and 0.2 ml of the respective solvents were intracutaneously injected in five sites of 3 albino rabbits, and macroscopical skin reactions, as erythema, oedema and eschar were evaluated. No abnormalities immediately after intradermal injection of sodium chloride injection extract and sodium chloride injection (vehicle control) were observed. […] The primary irritation index in sodium chloride injection (Treated-Control) was 0.00. No abnormalities immediately after intradermal injection of cottonseed oil extract and cottonseed oil (vehicle control) were observed. […] The primary irritation index in cottonseed oil (Treated-Control) was 0.00.

Molecules are shown by their SMILES. Peptide text beside a SMILES is read from it.

Turning to `O=C(O)C[C@H](NC(=O)[C@@H]1CCCN1)C(=O)N[C@@H](Cc1ccccc1)C(=O)N[C@@H](CC(=O)O)C(=O)N[C@@H](Cc1ccccc1)C(=O)N[C@@H](CC(=O)O)C(=O)N[C@@H](Cc1ccccc1)C(=O)N[C@@H](CC(=O)O)C(=O)N[C@@H](Cc1ccccc1)C(=O)N[C@@H](CC(=O)O)C(=O)N[C@@H](Cc1ccccc1)C(=O)N[C@@H](CC(=O)O)C(=O)N1CCC[C@H]1C(=O)O` [PFD5, Pro-(Asp-Phe)5-Asp-Pro] (H-PDFDFDFDFDFDP-OH), in the data set with albino rabbits [1] (4 weeks), the “inflammatory responses or necrosis at the sites of implantation” value is “no inflammatory responses or necrosis”. Also, the “local effects compared to the negative control” value in the data set on albino rabbits [1] (4 weeks after implantation, control HDPE) was “Minimal local effects”. Besides, the “adverse tissue reaction (histology)” value in the data set on rats is reported as “deprived of multinucleated giant cells or other adverse effects to nearby tissue”. The “primary irritation index (Treated-Control)” value in the data set on albino rabbits [2] (cottonseed oil extract of 3% w/v PFD5 hydrogel) and in the data set on albino rabbits [2] (sodium chloride injection extract of 3% w/v PFD5 hydrogel) was 0.00 each time. Further, the “erythema and oedema at treated sites” value in the data set on albino rabbits [2] (cottonseed oil extract) is “a slight erythema and a slight oedema”; in the data set with albino rabbits [2] (sodium chloride injection extract), “no signs of erythema or oedema”.
